Data as given in patent US20230374038A1, “MODULATORS OF CYSTIC FIBROSIS TRANSMEMBRANE CONDUCTANCE REGULATOR” (VERTEX PHARMACEUTICALS INCORPORATED, priority 2020, published 2023).

Target: CFTR (Homo sapiens, UniProt P13569)
Assay: Membrane Potential Dye, Enteroid Assay B
Assay type: cell-based
Conditions: for EC50: read-out: Ent. B EC50
Experimental: Base medium (ADF+++) consisted of Advanced DMEM/Ham's F12, 2 mM Glutamax, 10 mM HEPES, 1 µg/mL penicillin/streptomycin.
Intestinal enteroid maintenance medium (IEMM) consisted of ADF+++, 1× B27 supplement, 1× N2 supplement, 1.25 mM N-acetyl cysteine, 10 mM Nicotinamide, 50 ng/mL hEGF, 10 nM Gastrin, 1 pg/mL hR-spondin-1, 100 ng/mL hNoggin, TGF-b type 1 inhibitor A-83-01, 100 μg/mL Primocin, […] P38 MAPK inhibitor SB202190.
Bath 1 Buffer consisted of 1 mM MgCl2, 160 mM NaCl, 4.5 mM KCl, 10 mM HEPES, 10 mM Glucose, 2 mM CaCl2).
Chloride Free Buffer consisted of 1 mM Magnesium Gluconate, 2 mM Calcium Gluconate, 4.5 mM Potassium Gluconate, 160 mM Sodium Gluconate, 10 mM HEPES, 10 mM Glucose.
Bath1 Dye Solution consisted of Bath 1 Buffer, 0.04% Pluronic F127, […] Methyl Oxonol, 30 μM CaCCinh-A01, 30 μM Chicago Sky Blue.
Chloride Free Dye Solution consisted of Chloride Free Buffer, 0.04% Pluronic F127, 20 μM Methyl Oxonol, 30 μM CaCCinh-A01, 30 μM Chicago Sky Blue.
Chloride Free Dye Stimulation Solution consisted of Chloride Free Dye Solution, 10 μM forskolin, 100 μM IBMX, and 300 nM Compound III.
Human intestinal epithelial enteroid cells were obtained from the Hubrecht Institute for Developmental Biology and Stem Cell Research, Utrecht, The Netherlands and expanded in T-Flasks as previously described (Dekkers J F, Wiegerinck C L, de Jonge H R, Bronsveld I, Janssens H M, de Winter-de Groot K M, Brandsma A M, de Jong N W M, Bijvelds M J C, Scholte B J, Nieuwenhuis E E S, van den Brink S, Clevers H, van der Ent C K, Middendorp S and M Beekman J M. A functional CFTR assay using primary cystic fibrosis intestinal organoids. Nat Med. 2013 July; 19(7):939-45.).
Cells were recovered in cell recovery solution, collected by centrifugation at 650 rpm for 5 min at 4° C., resuspended in TryPLE and incubated for 5 min at 37° C. Cells were then collected by centrifugation at 650 rpm for 5 min at 4° C. and resuspended in IEMM containing 10 μM ROCK inhibitor (RI). The cell suspension was passed through a 40 μm cell strainer and resuspended at 1×10^6 cells/mL in IEMM containing 10 μM RI. Cells were seeded at 5000 cells/well into multi-well plates and incubated for overnight at 37° C., 95% humidity and 5% CO2 prior to assay.
Enteroid cells were incubated with test compound in IEMM for 18-24 hours at 37° C., 95% humidity and 5% CO2. […] Briefly, cells were washed 5 times in Bath 1 Buffer. Bath 1 Dye Solution was added and the cells were incubated for 25 min at room temperature. Following dye incubation, cells were washed 3 times in Chloride Free Dye Solution. Chloride transport was initiated by addition of Chloride Free Dye Stimulation Solution and the fluorescence signal was read for 15 min. […] Chloride transport was then expressed as a percentage of the chloride transport following treatment with 1 μM (14S)-8-[3-(2-{Dispiro[2.0.2.1]heptan-7-yl}ethoxy)-1H-pyrazol-1-yl]-12,12-dimethyl-2λ^6-thia-3,9,11,18,23-pentaazatetracyclo[17.3.1.111,14.05,10]tetracosa-1(22),5,7,9,19(23),20-hexaene-2,2,4-trione, 3 μM (R)-1-(2,2-difluorobenzo[d][1,3]dioxol-5-yl)-N-(1-(2,3-dihydroxypropyl)-6-fluoro-2-(1-hydroxy-2-methylpropan-2-yl)-1H-indol-5-yl)cyclopropanecarboxamide and 300 nM acute N-[2,4-bis(1,1-dimethylethyl)-5-hydroxyphenyl]-1,4-dihydro-4-oxoquinoline-3-carboxamide triple combination control (% Activity).

CFTR, sequence (P13569 with tags, fused parts or gaps DEL508-508): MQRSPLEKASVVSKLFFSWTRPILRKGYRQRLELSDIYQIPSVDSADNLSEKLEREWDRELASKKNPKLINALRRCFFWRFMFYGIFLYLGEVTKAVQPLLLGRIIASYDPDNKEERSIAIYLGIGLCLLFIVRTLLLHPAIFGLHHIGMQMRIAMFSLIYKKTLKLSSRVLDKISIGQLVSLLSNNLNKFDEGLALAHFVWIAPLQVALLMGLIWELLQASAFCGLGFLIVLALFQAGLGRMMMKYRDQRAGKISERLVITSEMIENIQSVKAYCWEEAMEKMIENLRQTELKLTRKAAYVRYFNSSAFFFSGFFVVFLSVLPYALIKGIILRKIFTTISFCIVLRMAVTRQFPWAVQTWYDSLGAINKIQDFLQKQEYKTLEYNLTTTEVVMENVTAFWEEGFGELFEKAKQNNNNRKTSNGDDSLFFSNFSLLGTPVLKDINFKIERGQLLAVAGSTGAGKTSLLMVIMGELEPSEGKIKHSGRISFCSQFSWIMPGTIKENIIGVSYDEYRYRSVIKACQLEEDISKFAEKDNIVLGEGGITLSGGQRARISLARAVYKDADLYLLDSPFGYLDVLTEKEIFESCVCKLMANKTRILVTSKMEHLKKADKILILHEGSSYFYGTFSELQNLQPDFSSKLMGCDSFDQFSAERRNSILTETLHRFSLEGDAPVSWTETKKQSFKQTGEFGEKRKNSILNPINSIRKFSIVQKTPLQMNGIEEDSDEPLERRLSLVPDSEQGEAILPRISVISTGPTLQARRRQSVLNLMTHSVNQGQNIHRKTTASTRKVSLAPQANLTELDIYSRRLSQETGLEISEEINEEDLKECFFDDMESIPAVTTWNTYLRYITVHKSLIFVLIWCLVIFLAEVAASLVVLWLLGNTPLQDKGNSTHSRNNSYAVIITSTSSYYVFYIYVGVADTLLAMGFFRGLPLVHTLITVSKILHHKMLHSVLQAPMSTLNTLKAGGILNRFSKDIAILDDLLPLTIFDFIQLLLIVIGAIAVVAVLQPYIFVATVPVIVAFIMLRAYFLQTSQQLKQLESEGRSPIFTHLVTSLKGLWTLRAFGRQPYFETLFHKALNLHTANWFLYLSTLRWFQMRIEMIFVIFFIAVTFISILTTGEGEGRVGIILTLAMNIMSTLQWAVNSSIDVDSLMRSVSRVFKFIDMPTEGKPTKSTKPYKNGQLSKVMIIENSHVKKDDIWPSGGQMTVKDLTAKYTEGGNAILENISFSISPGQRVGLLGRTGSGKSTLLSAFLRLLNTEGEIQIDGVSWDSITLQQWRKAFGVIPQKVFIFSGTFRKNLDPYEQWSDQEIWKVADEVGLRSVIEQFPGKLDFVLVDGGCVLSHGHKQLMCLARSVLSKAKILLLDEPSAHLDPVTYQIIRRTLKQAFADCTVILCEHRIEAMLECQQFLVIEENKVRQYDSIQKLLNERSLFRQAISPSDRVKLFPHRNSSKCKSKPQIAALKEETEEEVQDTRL

| Ent. B Max Activity | EC50 [nM] | SMILES |
| --- | --- | --- |
| +++ (+++ is >60%) | 1000 to 3000 | COc1ccccc1-c1c2nc(nc1-c1c(C)cccc1C)NS(=O)(=O)c1cccc(c1)C(=O)N[C@H](C)CO2 [Compound 123, (11R)-6-(2,6-Dimethylphenyl)-7-(2-methoxyphenyl)-11-methyl-2,2-dioxo-9-oxa-2λ^6-thia-3,5,12,19-tetrazatricyclo[12.3.1.14,8]nonadeca-1(18),4(19),5,7,14,16-hexaen-13-one] |
| +++ (+++ is >60%) | < 1000 | COc1ccccc1-c1c2nc(nc1-c1c(C)cccc1C)NS(=O)(=O)c1cccc(c1)C(=O)NC[C@@H](C)O2 [Compound 153] |
| +++ (+++ is >60%) | < 1000 | Cc1cccc(C)c1-c1nc2nc(c1C)OC[C@@H](CC(C)(C)C)N(C1CC3(CC(NC(=O)OC(C)C)C3)C1)C(=O)c1cccc(c1)S(=O)(=O)N2 (single isomer, unassigned) [Compound 65] |
| +++ (+++ is >60%) | 3000 to 30000 | Cc1cccc(C)c1-c1nc2nc(c1C#N)OC[C@@H](CC(C)C)NC(=O)c1cccc(c1)S(=O)(=O)N2 [Compound 169, (11R)-6-(2,6-Dimethylphenyl)-11-isobutyl-2,2,13-trioxo-9-oxa-2λ^6-thia-3,5,12,19-tetrazatricyclo[12.3.1.14,8]nonadeca-1(18),4(19),5,7,14,16-hexaene-7-carbonitrile] |
| +++ (+++ is >60%) | < 1000 | Cc1cccc(C)c1-c1nc2nc(c1C)OC[C@@H](CC(C)(C)C)NC(=O)c1cccc(c1)S(=O)(=O)N2 [Compound 102] |
| +++ (+++ is >60%) | < 1000 | COC(=O)NC1CC2(C1)CC(N1C(=O)c3cccc(c3)S(=O)(=O)Nc3nc(c(C)c(-c4c(C)cccc4C)n3)OC[C@H]1CC(C)C)C2 (stereo in doubt) [Compound 68] |
| +++ (+++ is >60%) | < 1000 | COC1CC(N2C(=O)c3cccc(c3)S(=O)(=O)Nc3nc(c(C)c(-c4c(C)cccc4C)n3)OC[C@H]2CC(C)C)C1 (stereo in doubt) [Compound 71] |
| +++ (+++ is >60%) | < 1000 | Cc1cccc(C)c1-c1nc2nc(c1C)OC[C@@H](CC(C)(C)C)N(C1CC3(CC(CO)C3)C1)C(=O)c1cccc(c1)S(=O)(=O)N2 (stereo in doubt) [Compound 79] |
| +++ (+++ is >60%) | < 1000 | Cc1cccc(C)c1-c1nc2nc(c1C)OC(c1ccc(CC3(C(F)(F)F)CC3)cn1)CN(C)C(=O)c1cccc(c1)S(=O)(=O)N2 (stereo not drawn) [Compound 205] |
| +++ (+++ is >60%) | < 1000 | COC(=O)NC1CC2(C1)CC(N1C(=O)c3cccc(c3)S(=O)(=O)Nc3nc(c(C)c(-c4c(C)cccc4C)n3)OC[C@H]1CC(C)(C)C)C2 (single isomer, unassigned) [Compound 61] |
| +++ (+++ is >60%) | < 1000 | Cc1cccc(C)c1-c1nc2nc(c1C)OC[C@@H](CC(C)(C)C)N(C1CC3(CC(NC(=O)OC(C)(C)C)C3)C1)C(=O)c1cccc(c1)S(=O)(=O)N2 (single isomer, unassigned) [Compound 59] |
| +++ (+++ is >60%) | < 1000 | Cc1cccc(C)c1-c1nc2nc(c1C)OC[C@@H](CC(C)(C)O)N(Cc1ccc(C(C)(C)O)cc1)C(=O)c1cccc(c1)S(=O)(=O)N2 [Compound 114] |
| +++ (+++ is >60%) | < 1000 | Cc1cccc(C)c1-c1nc2nc(c1C)OC[C@@H](CC1(C(F)(F)F)CC1)N(C1CC3(CC(NC(=O)OC(C)C)C3)C1)C(=O)c1cccc(c1)S(=O)(=O)N2 (stereo in doubt) [Compound 89] |
| +++ (+++ is >60%) | < 1000 | Cc1cccc(C)c1-c1nc2nc(c1F)OC[C@@H](CC(C)C)N(C1CC3(CCN(C(=O)OC(C)(C)C)CC3)C1)C(=O)c1cccc(c1)S(=O)(=O)N2 [Compound 187] |
| ++ (++ is 30-60%) | < 1000 | Cc1cccc(C)c1-c1nc2nc(c1/C=C/C(C)(C)C)OC[C@@H](C)NC(=O)c1cccc(c1)S(=O)(=O)N2 [Compound 138] |
| + (+ is <30%) | – | Cc1cccc(C)c1-c1nc2nc(c1-c1cccnc1)OC[C@@H](C)NC(=O)c1cccc(c1)S(=O)(=O)N2 [Compound 143] |
| +++ (+++ is >60%) | < 1000 | Cc1cccc(C)c1-c1nc2nc(c1C)OC[C@@H](CC1(C(F)(F)F)CC1)N(C1CC3(CCN(C(=O)OC(C)C)CC3)C1)C(=O)c1cccc(c1)S(=O)(=O)N2 [Compound 76] |
| +++ (+++ is >60%) | < 1000 | Cc1cccc(C)c1-c1nc2nc(c1CCC(C)(C)C)O[C@H](C)CNC(=O)c1cccc(c1)S(=O)(=O)N2 [Compound 120, (10R)-7-(3,3-Dimethylbutyl)-6-(2,6-dimethylphenyl)-10-methyl-2,2-dioxo-9-oxa-2λ^6-thia-3,5,12,19-tetrazatricyclo[12.3.1.14,8]nonadeca-1(18),4(19),5,7,14,16-hexaen-13-one] |
| +++ (+++ is >60%) | < 1000 | COC1CC(N2C(=O)c3cccc(c3)S(=O)(=O)Nc3nc(c(C)c(-c4c(C)cccc4C)n3)OC[C@H]2CC(C)(C)C)C1 (stereo partly drawn) [Compound 83] |
| + (+ is <30%) | – | Cc1cccc(C)c1-c1nc2nc(c1-c1ccn(C)n1)OC[C@@H](C)NC(=O)c1cccc(c1)S(=O)(=O)N2 [Compound 137] |
| + (+ is <30%) | – | Cc1cccc(C)c1-c1nc2nc(c1-c1ccn(C)n1)O[C@H](C)CNC(=O)c1cccc(c1)S(=O)(=O)N2 [Compound 129] |
| +++ (+++ is >60%) | < 1000 | Cc1cccc(C)c1-c1nc2nc(c1C)OC[C@@H](CC1(C(F)(F)F)CC1)N(C1CC3(CC(N(C)C)C3)C1)C(=O)c1cccc(c1)S(=O)(=O)N2 (stereo in doubt) [Compound 91] |
| +++ (+++ is >60%) | < 1000 | Cc1cccc(C)c1-c1nc2nc(c1C)OC[C@@H](CC(C)(C)C(F)(F)F)N(C1CC3(CCN(C(=O)OC(C)C)CC3)C1)C(=O)c1cccc(c1)S(=O)(=O)N2 [Compound 184] |
| +++ (+++ is >60%) | < 1000 | COC(=O)NC1CC2(C1)CC(N1C(=O)c3cccc(c3)S(=O)(=O)Nc3nc(c(C)c(-c4c(C)cccc4C)n3)OC[C@H]1CC(C)(C)C)C2 (single isomer, unassigned) [Compound 64] |
| ++ (++ is 30-60%) | < 1000 | Cc1cccc(C)c1-c1nc2nc(c1-c1ccccc1)OC[C@@H](C)NC(=O)c1cccc(c1)S(=O)(=O)N2 [Compound 142] |
| ++ (++ is 30-60%) | 1000 to 3000 | Cc1cccc(C)c1-c1nc2nc(c1C)OC[C@@H](CCC(C)(C)O)N(Cc1ccc(C(C)(C)O)cc1)C(=O)c1cccc(c1)S(=O)(=O)N2 [Compound 112] |
| ++ (++ is 30-60%) | < 1000 | Cc1cccc(C)c1-c1nc2nc(c1CN(C)C)OC[C@@H](CC(C)C)N(C1CC3(CC3)C1)C(=O)c1cccc(c1)S(=O)(=O)N2 [Compound 171, (11R)-7-[(Dimethylamino)methyl]-6-(2,6-dimethylphenyl)-11-isobutyl-2,2-dioxo-12-spiro[2.3]hexan-5-yl-9-oxa-2λ^6-thia-3,5,12,19-tetrazatricyclo[12.3.1.14,8]nonadeca-1(18),4(19),5,7,14,16-hexaen-13-one] |
